Data on six molecules can be found in paper PMC8453114 (Journal of molecular biology, 2021).

For the first test, the target named is T1, HTLV-1 myr(−)MA (Human T-cell leukemia virus type I, UniProt Q9QR99). Briefly: 1H-15N HSQC NMR titration. The format is binding.
`O=P(O)(O)O[C@@H]1[C@H](O)[C@H](O)[C@@H](OP(=O)(O)O)[C@H](OP(=O)(O)O)[C@H]1O` [IP3, inositol 1,4,5-trisphosphate]: the Kd was 338 ± 42 µM.

For the molecule `O=P(O)(O)O[C@H]1[C@H](OP(=O)(O)O)[C@@H](OP(=O)(O)O)[C@H](OP(=O)(O)O)[C@@H](OP(=O)(O)O)[C@H]1OP(=O)(O)O` [IP6, inositol hexakisphosphate], binding was put at a Kd of 23 ± 11 µM.

Turning to `CCCC(=O)OC[C@H](COP(=O)(O)O[C@@H]1[C@H](O)[C@H](O)[C@@H](OP(=O)(O)O)[C@H](OP(=O)(O)O)[C@H]1O)OC(=O)CCC` [diC4-PI(4,5)P2], the affinity, expressed as Kd, was 306 ± 30 µM. This Kd lies about 13-fold higher than the previous one.

Molecule `CCCCCC(=O)OC[C@H](COP(=O)(O)O[C@@H]1[C@H](O)[C@H](O)[C@@H](OP(=O)(O)O)[C@H](OP(=O)(O)O)[C@H]1O)OC(=O)CCCCC` [diC6-PI(4,5)P2] came in with a Kd of 195 ± 19 µM.

The target in the next test is T1, HTLV-1 myr(−)MA. Briefly: 1H NMR liposome. The format is binding.
In turn, `CCCCCCCC/C=C\CCCCCCCC(=O)O[C@H](COC(=O)CCCCCCCCCCCCCCC)COP(=O)(O)OC[C@H](N)C(=O)O` [POPS, 1-palmitoyl-2-oleoyl-sn-glycero-3-phospho-L-serine] showed a dissociation constant Kd of 118 ± 16 µM.

`CCCCCCCCCCCCCCCC(=O)OC[C@H](COP(=O)(O)O[C@@H]1[C@H](O)[C@H](OP(=O)(O)O)[C@@H](O)[C@H](OP(=O)(O)O)[C@H]1O)OC(=O)CCCCCCCCCCCCCCC` [diC16-PI(3,5)P2, dipalmitoyl-phosphatidylinositol 3,5-bisphosphate] yielded a dissociation constant (Kd) of 32 ± 2 µM.
